Assay results: patent US7238507B2, “Aspergillus ochraceus 11 alpha hydroxylase and oxidoreductase” (priority 2000, dated 2007)

Assays:
[1] = system: Aspergillus ochraceus spores; assay: 11 α-hydroxylation of canrenone by A. ochraceus spores, media extract analysed by HPLC; format: cell-based; settings: spores incubated approximately 26 hours at 30° C. with 0.1 g canrenone in 400 ml; data not shown
Description: Aspergillus ochraceus ATCC 18500 stock culture (50 ul) was grown for 3-4 days on plates containing sporulation medium: 50 g/L molasses, 5 g/L cornsteep liquid, 5 g/L KH2PO4, 25 g/L NaCl, 25 g/L glucose, 20 g/L agar, and 0.4 g/L progesterone, pH 5.8. Progesterone was included in the media to induce the steroid 11 α-hydroxylase. Spores were scraped from the plates into 5 to 7 ml saline, washed in saline, collected by centrifugation, and suspended in saline containing 15% glycerol. The spores were frozen on dry ice and stored at −80° C. Approximately 0.8 g spores were incubated at 30° C. in a 1 liter flask containing 400 ml 1% glucose, 50 mM KH2PO4 and 0.1 g canrenone, pH 7.0. This treatment prior to spore disruption has three benefits: (1) to induce the steroid 11 α-hydroxylase by incubation with canrenone; (2) to determine whether the spores were catalyzing the 11 α-hydroxylation of canrenone; (3) and to soften the spore wall. After approximately 26 hours of incubating with shaking at 30° C. to provide better aeration, the spores were collected by centrifugation. […]
Approximately 160 ml of media from the spore induction was extracted three times with 70 ml ethyl acetate to collect the steroid substrate and products. […] The residue was dissolved in 8 ml methanol so that the final concentration of canrenone was approximately 15 mM (assuming quantitative recovery). […]

[2] = system: Aspergillus ochraceus 11 alpha hydroxylase; assay: HPLC assay of conversion of androstenedione to 11α-hydroxyandrostenedione by subcellular fractions of baculovirus-infected Sf9 cells co-expressing 11 alpha hydroxylase and human oxidoreductase; format: biochemical; settings: 11 alpha hydroxylase co-expressed in Sf-9 insect cells with human oxidoreductase
Description: Microsomal and mitochondrial subcellular fractions were prepared from insect cells co-infected with recombinant baculoviruses expressing recombinant Aspergillus ochraceus 11 alpha hydroxylase and human oxidoreductase cloned from HepG2 cell RNA. The subcellular fractions were incubated with 250 μM androstenedione (AD) in the presence of an NADPH-generating system for 120 minutes, and the resulting products were separated by HPLC and monitored by ultraviolet detection at 247 nm. Hydroxlase activity was found in the microsomal fraction, as expected, but also appeared in the mitochondrial fraction. […] Panel A illustrates a reaction carried out using enzyme prepared from a mitochondrial fraction. The peak in panel A that elutes after AD appears to be testosterone. When a microsomal fraction was used, almost as much AD was converted to 11 alpha hydroxy AD, but relatively more testosterone was also produced. Panel B illustrates the same reaction carried out for 120 minutes without a source of enzyme. Panel C illustrates an HPLC tracing with 11α-hydroxyandrostenedione standard added to incubation buffer.
Sf9 cells were co-infected with virus particles that contained the steroid 11 alpha hydroxylase cDNA and a separate virus containing a human NADPH P450-oxidoreductase. Both viruses were added at a multiplicity of infection (MOI) ratio of 0.1:0.01 (11 aOH to oxr). […]

SMILES	11 α-hydroxylation of canrenone, HPLC of media extract monitored at 254 nm [1]	conversion of the steroid substrate to 11 alpha-hydroxy-AD as determined by HPLC analysis [2]
C[C@]12CCC(=O)C=C1C=C[C@@H]1C2CC[C@@]2(C)C1CC[C@@]21CCC(=O)O1 (stereo partly drawn) [canrenone, Pregna-4,6-diene-21-carboxylic acid,17-hydroxy-3-oxo-,γ-lactone, (17α)-(9CI)]	exhibited a component with the same retention time as the 11 α-hydroxy canrenone standard	–
C[C@]12CCC(=O)C=C1CC[C@@H]1[C@@H]2CC[C@]2(C)C(=O)CC[C@@H]12 [AD, Androst-4-ene-3,17-dione(8CI,9CI)]	–	successfully catalyzed the conversion
